In patent publication US20050159485A1, “Combinations for the treatment of immunoinflammatory disorders and proliferative skin diseases” (priority 2002, published 2005):

Key:
[1] = test system: TNFα secretion from stimulated white blood cells; assay: Secondary screen, TNFα ELISA, white blood cells stimulated using 1 μg/ml LPS; assay type: cell-based, human
Protocol: (§1) Stock solutions at 1.6 mg/ml of alprostadil, and 4.0 mg/ml of […] (Sigma-Aldrich, St. Louis, Mo.; catalog numbers P5515 and R-2625, respectively) were made in dimethylsulfoxide (DMSO). The alprostadil master plates were made by adding 25 μl of the concentrated stock solution to columns 3, 9, and 15 (rows C through N) of a polypropylene 384-well storage plate that had been pre-filled with 75 μl of anhydrous DMSO. Using a TomTec Quadra Plus liquid handler, the 25 μl of alprostadil stock solution was serially diluted four times into the adjacent columns (columns 4-7, 10-13, 16-19). […] The tretinoin master plates were made by adding 25 μl of the concentrated stock solution to the appropriate wells (row C, columns 3-8; row C, columns 9-14; row C, columns 15-20; row I, columns 3-8; row I, columns 9-14; row I, columns 15-20) of the appropriate master polypropylene 384-well storage plate. These master plates had been pre-filled with 75 μl of anhydrous DMSO. Using the TomTec Quadra Plus liquid handler, the 25 μl was serially diluted four times in the adjacent rows (rows D-G, and J-M). […] Master plates were sealed and stored at −20° C. until ready for use.
This dilution plate was then mixed and a 10 μl aliquot transferred to the final assay plate, which had been pre-filled with 40 μl/well RPM media containing the appropriate stimulant to activate TNFα secretion (see below).
(§2) The compound dilution matrix was assayed using a TNFα ELISA method. Briefly, a […] suspension of diluted human white blood cells contained within each well of a polystyrene 384-well plate (NalgeNunc) was stimulated to secrete TNFα by treatment with a final concentration of 10 ng/ml phorbol 12-myristate 13-acetate (Sigma) and 750 ng/ml ionomycin (Sigma). Various concentrations of each test compound were added at the time of stimulation. After 16-18 hours of incubation at 37° C. in a humidified incubator, the plate was centrifuged and the supernatant transferred to a white opaque polystyrene 384 well plate (NalgeNunc, Maxisorb) coated with an anti-TNFα antibody (PharMingen, #18631D). After a two-hour incubation, the plate was washed (Tecan PowerWasher 384) with phosphate buffered saline (PBS) containing 0.1% Tween 20 (polyoxyethylene sorbitan monolaurate) and incubated for an additional one hour with another anti-TNFα antibody that was biotin labeled (PharMingen, 18642D) and horseradish peroxidase (HRP) coupled to strepavidin (PharMingen, #13047E).). After the plate was washed with 0.1% Tween 20/PBS, an HRP-luminescent substrate was added to each well and light intensity measured using a LJL Analyst plate luminometer. Sets of control wells contained a serial dilution of Cyclosporin A (Sigma) starting at a final concentration of 0.5 μg/ml.
In this experiment, white blood cells were stimulated using 1 μg/ml LPS.

[2] = test system: TNFα secretion from stimulated white blood cells; assay: TNFα ELISA, white blood cells stimulated with phorbol 12-myristate 13-acetate and ionomycin; assay type: cell-based, human; set-up: inhibition of TNFα secretion: dose or concentration left out as unconfirmed; conditions: PMA/ionomycin
Protocol: as §1
The final alprostadil/tretinoin combination plates were generated by transferring 1 μl from each of the alprostadil and tretinoin master plates to a dilution plate containing 100 μl of media (RPMI; Gibco BRL, #11875-085), 10% Fetal Bovine Serum (Gibco BRL, #25140-097), 2% Penicillin/Streptomycin (Gibco BRL, #15140-122)) using the TomTec Quadra Plus liquid handler. This dilution plate was then mixed and a 10 μl aliquot transferred to the final assay plate, which had been pre-filled with 40 μl/well RPM media containing the appropriate stimulant to activate TNFα secretion (see below).
as §2
The combination of 0.052 μM tretinoin and 0.004 μM alprostadil was able to suppress TNFα secretion by 42%. […] Maximal tretinoin efficacy (−36% TNFα suppression) is therefore maintained while reducing the concentration of total drug species by greater than 90% (0.052 μM tretionoin+0.004 μM alprostadil compared to 0.832 μM tretinoin alone).

[3] = Homo sapiens, Alprostadil 0.004 μM alone
[4] = Homo sapiens, Alprostadil 0.018 μM alone
[5] = Homo sapiens, Alprostadil 0.071 μM alone
[6] = Homo sapiens, Tretinoin 0.052 μM alone
[7] = Homo sapiens, Tretinoin 0.208 μM alone
[8] = Homo sapiens, Tretinoin 0.832 μM alone
[9] = Homo sapiens, Tretinoin 3.329 μM alone
[10] = Homo sapiens, Tretinoin 13.316 μM alone

CCCCC[C@H](O)/C=C/[C@H]1[C@H](O)CC(=O)[C@@H]1CCCCCCC(=O)O [Alprostadil, (11α, 13E, 15S)-11,15-dihydroxy-9-oxoprost-13-enoic acid]
inhibition at 0.004 µM [1, 3]: 44.6%
inhibition at 0.009 µM ([1]; Homo sapiens, Alprostadil 0.009 μM alone): 49.2%
inhibition at 0.018 µM [1, 4]: 54.8%
inhibition at 0.035 µM ([1]; Homo sapiens, Alprostadil 0.035 μM alone): 57.3%
inhibition at 0.071 µM [1, 5]: 71.5%
inhibition at 0.141 µM ([1]; Homo sapiens, Alprostadil 0.141 μM alone): 74.3%
inhibition at 0.282 µM ([1]; Homo sapiens, Alprostadil 0.282 μM alone): 75.7%
inhibition at 0.564 µM ([1]; Homo sapiens, Alprostadil 0.564 μM alone): 79.5%
inhibition at 1.128 µM ([1]; Homo sapiens, Alprostadil 1.128 μM alone): 81.6%
alprostadil concentration needed alone to attain 64.0% TNFα inhibition ([1]; alprostadil alone): ≥ 0.035 µM
maximal TNFα-inhibitory effect ([1]; alprostadil alone, concentration of at least 1.128 μM): 82%
inhibition at 0.004 µM [2, 3]: 33.3%
inhibition at 0.018 µM [2, 4]: 39.8%
inhibition at 0.071 µM [2, 5]: 50.5%
inhibition at 0.283 µM ([2]; Homo sapiens, Alprostadil 0.283 μM alone): 53.8%
inhibition at 1.13 µM ([2]; Homo sapiens, Alprostadil 1.130 μM alone): 56.8%
inhibition of TNFα secretion ([2]; alprostadil alone): 57%

CC1=C(/C=C/C(C)=C/C=C/C(C)=C/C(=O)O)C(C)(C)CCC1 [Tretinoin, 3,7-dimethyl-9-(2,6,6-trimethylcyclohex-1-enyl)nona-2,4,6,8-all-trans-tetraenoic acid]
inhibition at 0.052 µM [1, 6]: 32.7%
inhibition at 0.104 µM ([1]; Homo sapiens, Tretinoin 0.104 μM alone): 35.1%
inhibition at 0.208 µM [1, 7]: 32.5%
inhibition at 0.416 µM ([1]; Homo sapiens, Tretinoin 0.416 μM alone): 32.7%
inhibition at 0.832 µM [1, 8]: 38.4%
inhibition at 1.664 µM ([1]; Homo sapiens, Tretinoin 1.664 μM alone): 37.6%
inhibition at 3.329 µM [1, 9]: 44.1%
inhibition at 6.658 µM ([1]; Homo sapiens, Tretinoin 6.658 μM alone): 48.7%
inhibition at 13.316 µM [1, 10]: 52.1%
TNFα inhibition ([1]; tretinoin alone, concentrations from 6.7-13.3 μM): approximately 50%
inhibition at 0.052 µM [2, 6]: 13.8%
inhibition at 0.208 µM [2, 7]: 28.7%
inhibition at 0.832 µM [2, 8]: 34.5%
inhibition at 3.329 µM [2, 9]: 34.1%
inhibition at 13.316 µM [2, 10]: 36.2%
maximal inhibition of TNFα secretion ([2]; tretinoin alone, concentrations ranging from 0.83-13.3 μM): 36%
